We go through 35 molecules from patent US10899774B2, “IRAK4 modulators” (Genentech, Inc., priority 2017, dated 2021).

This assay deals with human IRAK4 (Homo sapiens (Human), UniProt Q9NWZ3). The assay is described as follows: IRAK4 kinase inhibition, Transcreener fluorescence polarization (ADP detection). It counts as biochemical. To be noted: recombinant full-length His6-IRAK4; 1.25 nM IRAK4; 125 μM ATP; 90 min; ATP Km 642 μM. On the procedure: Compounds were assayed for inhibition of human IRAK4 and IRAK1 catalytic activity using recombinant enzyme produced from insect cells. Full-length IRAK4 protein, carrying an N-terminal His6-Tag, was obtained from Life Technologies (Carlsbad, Calif., USA). The IRAK1 construct was produced internally and was comprised of IRAK1 residues Arg194 to Ser712, preceded by an NH2-terminal His6 tag and the coding sequence for glutathione-S-transferase.
Kinase activities were assayed using the Transcreener-Fluorecescence polarization platform (BelBrook Labs, Madison, Wis., USA) that measures amounts of the reaction product, ADP.
384 well assay plates spotted with compound received 4 μl of a 2× substrate (ATP+peptide) mix in reaction buffer, followed by 4 μl of 2× enzyme diluted in reaction buffer.
In general terms: Fluorescence polarisation rises when a labelled molecule tumbles more slowly, as on binding a larger partner.

Chain of human IRAK4 (Q9NWZ3 whole entry, the tested form may be a part): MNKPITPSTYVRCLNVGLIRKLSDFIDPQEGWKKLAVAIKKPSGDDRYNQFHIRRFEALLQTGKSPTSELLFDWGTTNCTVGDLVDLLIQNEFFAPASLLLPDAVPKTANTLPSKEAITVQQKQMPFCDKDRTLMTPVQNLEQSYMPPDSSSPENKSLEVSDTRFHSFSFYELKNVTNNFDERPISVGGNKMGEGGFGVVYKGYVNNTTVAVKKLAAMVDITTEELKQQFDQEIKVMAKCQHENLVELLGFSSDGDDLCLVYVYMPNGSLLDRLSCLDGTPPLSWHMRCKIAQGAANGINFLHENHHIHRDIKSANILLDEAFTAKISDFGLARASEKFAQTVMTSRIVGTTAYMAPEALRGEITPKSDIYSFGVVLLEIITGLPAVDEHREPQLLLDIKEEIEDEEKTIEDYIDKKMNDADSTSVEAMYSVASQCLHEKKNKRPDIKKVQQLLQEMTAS

For `CC1COc2c(C(=O)Nc3cc4c(cc3N3CCOCC3)OC(C)(CO)C4)cnn2C1` (centres unmarked) [Example 55, N-[2-(Hydroxymethyl)-2-methyl-6-morpholino-3H-benzofuran-5-yl]-6-methyl-6,7-dihydro-5H-pyrazolo[5,1-b][1,3]oxazine-3-carboxamide], the Ki (in general, the dissociation constant of the complex between target and ligand, obtained from inhibition or displacement) was 390 nM. With `CC1(C)Cc2cc(NC(=O)c3ccn(-c4cc[nH]c(=O)c4)n3)c(N3CCOCC3)cc2O1` [Example 70, N-(2,2-Dimethyl-6-morpholino-3H-benzofuran-5-yl)-1-(2-oxo-1H-pyridin-4-yl)pyrazole-3-carboxamide] the figure was 2.7 nM; with `Cc1nc(C(=O)Nc2cc3c(cc2N2CCOCC2)OC(C)(C)C3)cs1` [Example 6, N-(2,2-Dimethyl-6-morpholino-2,3-dihydrobenzofuran-5-yl)-2-methylthiazole-4-carboxamide], 38 nM.

Turning to `C[C@@]1(CO)Cc2cc(NC(=O)c3ccc4cccnn34)c(N3CCOCC3)cc2O1` (single isomer, unassigned) [Example 18], the Ki stood at 3.4 nM.

`CC1(C)Cc2cc(NC(=O)c3n[nH]c4cccnc34)c(N3CCOCC3)cc2O1` [Example 45, N-(2,2-Dimethyl-6-morpholino-2,3-dihydrobenzofuran-5-yl)-1H-pyrazolo[4,3-b]pyridine-3-carboxamide]: the Ki was 490 nM. With `CC1(C)Cc2cc(NC(=O)c3c[nH]c4cccnc34)c(N3CCOCC3)cc2O1` [Example 28, N-(2,2-Dimethyl-6-morpholino-3H-benzofuran-5-yl)-1H-pyrrolo[3,2-b]pyridine-3-carboxamide] the figure was 470 nM. Regarding `CC1(C)Cc2cc(NC(=O)c3ccc(O)nn3)c(N3CCOCC3)cc2O1` [Example 2, N-(2,2-Dimethyl-6-morpholino-2,3-dihydrobenzofuran-5-yl)-6-hydroxypyridazine-3-carboxamide], the Ki was determined as 30 nM. The value for `CC1(C)Cc2cc(NC(=O)c3ncc(C(C)(C)C)[nH]3)c(N3CCOCC3)cc2O1` [Example 47, 5-(tert-Butyl)-N-(2,2-dimethyl-6-morpholino-2,3-dihydrobenzofuran-5-yl)-1H-imidazole-2-carboxamide] was 200 nM. With `CC1(C)Cc2cc(NC(=O)c3cnn4c3OCCC4)c(N3CCOCC3)cc2O1` [Example 1, N-(2,2-Dimethyl-6-morpholino-2,3-dihydrobenzofuran-5-yl)-6,7-dihydro-5H-pyrazolo[5,1-b][1,3]oxazine-3-carboxamide] the figure was 67 nM; with `CC1(C)Cc2cc(NC(=O)c3cccc4[nH]nnc34)c(N3CCOCC3)cc2O1` [Example 4, N-(2,2-Dimethyl-6-morpholino-2,3-dihydrobenzofuran-5-yl)-1H-benzo[d][1,2,3]triazole-4-carboxamide], 7.1 nM; with `CC1(C)Cc2cc(NC(=O)c3ccccn3)c(N3CCOCC3)cc2O1` [Example 27, N-(2,2-Dimethyl-6-morpholino-2,3-dihydrobenzofuran-5-yl)picolinamide], 42 nM. The value for `CC1(C)Cc2cc(NC(=O)c3cnsn3)c(N3CCOCC3)cc2O1` [Example 14, N-(2,2-Dimethyl-6-morpholino-2,3-dihydrobenzofuran-5-yl)-1,2,5-thiadiazole-3-carboxamide] was 340 nM. With `CC1(C)Cc2cc(NC(=O)c3coc(N4CCOCC4)n3)c(N3CCOCC3)cc2O1` [Example 37, N-(2,2-Dimethyl-6-morpholino-2,3-dihydrobenzofuran-5-yl)-2-morpholinooxazole-4-carboxamide], the Ki worked out at 5.2 nM.

For `Cc1ccc(-c2cc3c(cc2NC(=O)c2cnc(C)o2)CC(C)(C)O3)nc1` [Example 29, N-[2,2-Dimethyl-6-(5-methyl-2-pyridyl)-3H-benzofuran-5-yl]-2-methyl-oxazole-5-carboxamide], the Ki was determined as 230 nM. Turning to `Cc1cc(-c2nc(C(=O)Nc3cc4c(cc3N3CCOCC3)OC(C)(C)C4)co2)ccn1` [Example 35, N-(2,2-Dimethyl-6-morpholino-2,3-dihydrobenzofuran-5-yl)-2-(2-methylpyridin-4-yl)oxazole-4-carboxamide], the Ki came to 1.4 nM. For `CC1(C)Cc2cc(NC(=O)c3coc(C4CC4)n3)c(N3CCOCC3)cc2O1` [Example 38, 2-Cyclopropyl-N-(2,2-dimethyl-6-morpholino-2,3-dihydrobenzofuran-5-yl)oxazole-4-carboxamide], the Ki amounted to 7.4 nM.

As for `CC1(C)Cc2cc(NC(=O)c3cscn3)c(N3CCOCC3)cc2O1` [Example 42, N-(2,2-Dimethyl-6-morpholino-2,3-dihydrobenzofuran-5-yl)thiazole-4-carboxamide], the Ki worked out at 98 nM.

As to `CC1(C)Cc2cc(NC(=O)c3cccs3)c(N3CCOCC3)cc2O1` [Example 30, N-(2,2-Dimethyl-6-morpholino-2,3-dihydrobenzofuran-5-yl)thiophene-2-carboxamide], the Ki stood at 780 nM. With `CC1(C)Cc2cc(NC(=O)c3ccn(-c4ccnc(C(C)(C)O)c4)n3)c(N3CCOCC3)cc2O1` [Example 61, N-(2,2-Dimethyl-6-morpholino-3H-benzofuran-5-yl)-1-[2-(1-hydroxy-1-methyl-ethyl)-4-pyridyl]pyrazole-3-carboxamide] the figure was 4.6 nM; with `CC1(C)COc2cc(C(=O)Nc3cc4c(cc3N3CCOCC3)OC(C)(CO)C4)nn2C1` (centres unmarked) [Example 54, N-[2-(Hydroxymethyl)-2-methyl-6-morpholino-3H-benzofuran-5-yl]-6,6-dimethyl-5,7-dihydropyrazolo[5,1-b][1,3]oxazine-2-carboxamide], 810 nM. As to `COc1cc(-n2ccc(C(=O)Nc3cc4c(cc3N3CCOCC3)OC(C)(C)C4)n2)ccn1` [Example 60, N-(2,2-Dimethyl-6-morpholino-3H-benzofuran-5-yl)-1-(2-methoxy-4-pyridyl)pyrazole-3-carboxamide], the Ki was found to be 8.2 nM. In the case of `C[C@]1(CO)Cc2cc(NC(=O)c3ccc4cncnn34)c(N3CCOCC3)cc2O1` (single isomer, unassigned) [Example 24], the Ki amounted to 7.7 nM. With `CC1(C)Cc2cc(NC(=O)c3ccn(-c4ccnc(C#N)c4)n3)c(N3CCOCC3)cc2O1` [Example 63, 1-(2-Cyano-4-pyridyl)-N-(2,2-dimethyl-6-morpholino-3H-benzofuran-5-yl)pyrazole-3-carboxamide] the figure was 16 nM. For the molecule `CC1(C)Cc2cc(NC(=O)c3cncc4[nH]cnc34)c(N3CCOCC3)cc2O1` [Example 21, N-(2,2-Dimethyl-6-morpholino-2,3-dihydrobenzofuran-5-yl)-3H-imidazo[4,5-c]pyridine-7-carboxamide], the Ki amounted to 280 nM. With `Cc1cn(-c2nc(C(=O)Nc3cc4c(cc3N3CCOCC3)OC(C)(C)C4)co2)cn1` [Example 33, N-(2,2-Dimethyl-6-morpholino-2,3-dihydrobenzofuran-5-yl)-2-(4-methyl-1H-imidazol-1-yl)oxazole-4-carboxamide] the figure was 3.7 nM; with `Cc1nc(C(=O)Nc2cc3c(cc2N2CCOCC2)OC(C)(C)C3)co1` [Example 51, N-(2,2-Dimethyl-6-morpholino-3H-benzofuran-5-yl)-2-methyl-oxazole-4-carboxamide], 18 nM; with `C[C@@]1(CO)Cc2cc(NC(=O)c3ccc4cncnn34)c(N3CCOCC3)cc2O1` (single isomer, unassigned) [Example 23], 3.6 nM. With `CC1(C)Cc2cc(NC(=O)c3ccncn3)c(N3CCOCC3)cc2O1` [Example 46, N-(2,2-Dimethyl-6-morpholino-2,3-dihydrobenzofuran-5-yl)pyrimidine-4-carboxamide] the figure was 140 nM; with `C[C@H]1COCCN1c1nc(C(=O)Nc2cc3c(cc2N2CCOCC2)OC(C)(C)C3)co1` [Example 26, (S)-N-(2,2-Dimethyl-6-morpholino-2,3-dihydrobenzofuran-5-yl)-2-(3-methylmorpholino)oxazole-4-carboxamide], 35 nM; with `Cn1nnc2c(C(=O)Nc3cc4c(cc3N3CCOCC3)O[C@](C)(CO)C4)cncc21` (single isomer, unassigned) [Example 68], 70 nM. For `C[C@]1(CO)Cc2cc(NC(=O)c3ccc4cccnn34)c(N3CCOCC3)cc2O1` (single isomer, unassigned) [Example 19], the Ki was 21 nM. The value for `CC1(C)Cc2cc(NC(=O)c3cnc4cccnn34)c(N3CCOCC3)cc2O1` [Example 15, N-(2,2-Dimethyl-6-morpholino-2,3-dihydrobenzofuran-5-yl)imidazo[1,2-b]pyridazine-3-carboxamide] was 36 nM; that for `Cn1nnc2c(C(=O)Nc3cc4c(cc3N3CCOCC3)OC(C)(C)C4)cncc21` [Example 50, N-(2,2-Dimethyl-6-morpholino-3H-benzofuran-5-yl)-3-methyl-triazolo[4,5-c]pyridine-7-carboxamide] was 78 nM. Consider `Cc1cnc(C(=O)Nc2cc3c(cc2N2CCOCC2)OC(C)(C)C3)cn1` [Example 13, N-(2,2-Dimethyl-6-morpholino-2,3-dihydrobenzofuran-5-yl)-5-methylpyrazine-2-carboxamide], for which the Ki worked out at 280 nM. Take `CC1(C)Cc2cc(NC(=O)c3cnn4ccc(=O)[nH]c34)c(N3CCOCC3)cc2O1` [Example 71, N-(2,2-dimethyl-6-morpholino-3H-benzofuran-5-yl)-5-oxo-4H-pyrazolo[1,5-a]pyrimidine-3-carboxamide]: the Ki was 930 nM.
